Measurements published in PMC7108782, “Direct interaction of metastasis-inducing S100P protein with tubulin causes enhanced cell migration without changes in cell adhesion” (Biochemical Journal, 2020).
“Also recorded” adds a separate entry of the source. No end group written: not given here.

Tests used:
[1] = target: T1, S100P (Homo sapiens, UniProt P25815); assay: Isothermal titration calorimetry (ITC) of tubulin peptides with S100P; assay type: binding; conditions: ITC, 25°C, 20 mM MES pH 6.1, 50 mM NaCl, 1.0 mM TCEP, 5 mM CaCl2; single site fit; peptide in cell, S100P titrated
T1 construct: made in house
T1 sequence (P25815 1-95): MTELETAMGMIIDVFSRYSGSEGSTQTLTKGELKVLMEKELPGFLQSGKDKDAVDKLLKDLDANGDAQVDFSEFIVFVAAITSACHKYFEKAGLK
Procedure: Measurements were conducted using an ITC-200 instrument (Microcal) as previously described. ITC titrations were performed in 20 mM MES pH 6.1, 50 mM NaCl, 1.0 mM TCEP and 5 mM CaCl2 (for Ca^2+-form of S100P) at 25°C. Due to low solubility, peptide solutions at concentrations of 10–400 µM were placed in the cell and titrated with S100P at concentrations of 0.5–3 mM, depending on the peptide concentration. Data were integrated and fitted to a single site binding equation using Origin 7 software which was included with the ITC module (Malvern Microcal, Malvern, U.K.).

[2] = assay type: physicochemical; conditions: pH 6.1
Procedure: ^1H, ^15N HSQC spectra were measured at 40°C in 20 mM 2-morpholinoethanesulfonic acid sodium salt (MES), 50 mM NaCl, 0.5 mM CaCl2, 2 mM Tris-carboxyethyl-phosphine (TCEP), pH 6.1 buffer as described previously. Samples were prepared from 1.6 mM solution of ^15N-labelled S100P and 2–5 mM peptide solutions to obtain a 1 : 1 mixture of 0.1 mM of S100P and 0.1 mM of each peptide. Initially, peptide solutions were prepared by weight to produce 5 mM peptide concentrations. […] In these cases, buffer was added to reduce the peptide concentration to 2 mM. […] These peptides were added to the protein as cloudy suspensions to produce 0.1 mM solutions; some precipitations were still detected. To estimate the peptide concentrations, equivalent peptide solutions without the protein were prepared. All solutions were centrifuged before the NMR measurements. NMR spectra were collected on Bruker Avance III 800 MHz spectrometer equipped with CryoProbe. Data were processed and analysed in TopSpin 3.5 (Bruker, Karlsruhe, Germany).
Measurements were conducted using an ITC-200 instrument (Microcal) as previously described. ITC titrations were performed in 20 mM MES pH 6.1, 50 mM NaCl, 1.0 mM TCEP and 5 mM CaCl2 (for Ca^2+-form of S100P) at 25°C. […]

[3] = test system: COS-7 S10 cells; assay: Boyden chamber cell migration, S100P-inducible COS-7; assay type: cell-based, monkey; conditions: for effect on S100P-enhanced migration: COS-7 S10, 20 nM taxol or 5 µM colchicine, 24 h
Text: (§1) Cell migration rate (%) = M/G × 100.

[4] = test system: COS-7 cells; assay: Boyden chamber cell migration, COS-7 parental; assay type: cell-based, monkey
Text: as §1

[5] = test system: Rama 37-T25 cells; assay: S100P-enhanced cell migration, Rama 37-T25; assay type: cell-based, rat; conditions: Rama 37-T25; 20 nM taxol or 5 µM colchicine, 24 h
Text: as §1

[6] = test system: HeLa-A3 cells; assay: S100P-enhanced cell migration, HeLa-A3; assay type: cell-based, human; conditions: HeLa-A3; 20 nM taxol or 5 µM colchicine, 24 h
Text: as §1

[7] = test system: cell migration; conditions: almost all cell types tested, ref [17]; cited from earlier work
Text: It was reported that complete disruption of MTs in CHO and HeLa cells retained normal migration rates, but the resultant movement became more random and reduced overall travel distance.

[8] = test system: HeLa cells; assay: Boyden chamber cell migration with MT regulators, HeLa; conditions: 20 nM taxol, 24 h
[9] = test system: MCF-7 cells; assay: Boyden chamber cell migration with MT regulators, MCF-7; conditions: 20 nM taxol, 24 h, MCF-7
[10] = test system: Rama 37 cells; assay: Boyden chamber cell migration with MT regulators, Rama 37; conditions: 20 nM taxol, 24 h
[11] = test system: Dicytostelial cells; conditions: ref [40]; cited from earlier work
Text: It was reported that complete disruption of MTs in CHO and HeLa cells retained normal migration rates, but the resultant movement became more random and reduced overall travel distance. […] Well-established MTs may increase the rigidity of cells as well as their polarity and play a constraining role to limit a cell's ability of moving and changing direction. […] However, unlike the scratch wound- ...

[12] = target: T2, α,β-tubulin immobilised on a chip (human | , UniProt Q71U36 1-451; P07437 1-444); assay: cell-based or functional assay
T2 sequence (P68363 whole entry, chain 1 of 2): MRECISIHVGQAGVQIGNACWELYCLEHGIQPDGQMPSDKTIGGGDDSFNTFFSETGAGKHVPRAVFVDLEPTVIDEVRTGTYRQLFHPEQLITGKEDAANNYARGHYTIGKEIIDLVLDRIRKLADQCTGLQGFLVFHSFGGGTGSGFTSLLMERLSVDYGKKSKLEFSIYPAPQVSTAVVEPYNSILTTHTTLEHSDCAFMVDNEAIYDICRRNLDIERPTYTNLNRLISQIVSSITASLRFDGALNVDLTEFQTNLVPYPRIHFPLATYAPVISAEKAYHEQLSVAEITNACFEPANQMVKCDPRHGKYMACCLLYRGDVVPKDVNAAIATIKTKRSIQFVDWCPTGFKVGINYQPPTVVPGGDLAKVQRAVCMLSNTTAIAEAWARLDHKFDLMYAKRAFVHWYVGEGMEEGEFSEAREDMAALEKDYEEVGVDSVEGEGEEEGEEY
T2 sequence (P07437 whole entry, chain 2 of 2): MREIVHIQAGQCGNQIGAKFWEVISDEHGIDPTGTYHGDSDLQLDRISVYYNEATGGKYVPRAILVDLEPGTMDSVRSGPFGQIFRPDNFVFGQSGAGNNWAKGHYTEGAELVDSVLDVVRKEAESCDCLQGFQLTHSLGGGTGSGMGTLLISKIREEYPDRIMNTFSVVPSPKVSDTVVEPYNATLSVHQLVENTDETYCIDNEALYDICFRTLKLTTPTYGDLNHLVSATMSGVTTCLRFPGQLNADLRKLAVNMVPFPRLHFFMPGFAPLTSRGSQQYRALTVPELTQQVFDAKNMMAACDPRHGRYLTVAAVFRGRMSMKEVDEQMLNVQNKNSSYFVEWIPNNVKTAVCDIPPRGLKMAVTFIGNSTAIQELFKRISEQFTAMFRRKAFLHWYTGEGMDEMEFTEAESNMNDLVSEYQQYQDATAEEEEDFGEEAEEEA

[13] = target: T2, α,β-tubulin immobilised on a chip; assay: SPR; α,β-tubulin immobilised on CM5 chip; S100P in solution; single-cycle analysis; Kd near equilibrium; conditions: both partners purified
[14] = target: T2, α,β-tubulin immobilised on a chip; assay: SPR; α,β-tubulin immobilised on CM5 chip; S100P in solution; Kd from the ratio of forward and backward rate constants; conditions: both partners purified
[15] = target: DIC peptide, the 26mer starting with DIC from β-tubulin; assay: ITC; peptide (10-400 µM) in the cell titrated with S100P (0.5-3 mM); 25°C; 20 mM MES pH 6.1, 50 mM NaCl, 1.0 mM TCEP, 5 mM CaCl2; single site fit
[16] = target: VNA peptide from the C terminus of α-tubulin (human); assay: as above
[17] = target: T2, α,β-tubulin immobilised on a chip; assay: SPR; α,β-tubulin immobilised on CM5 chip; S100P in solution; high salt buffer (0.5 M NaCl) with 200 µM CaCl2; multiple cycles; Kd at or near equilibrium; conditions: both partners purified
[18] = target: T2, α,β-tubulin immobilised on a chip; assay: SPR; α,β-tubulin immobilised on CM5 chip (BS3), Biacore X100; S100P 20-2000 nM in solution; 0.15 M NaCl, 200 µM CaCl2; multiple-cycle; Kd from extent of binding near equilibrium; conditions: both partners purified

## DICFRTLKLTTPTYGDLNHLVSATMS [DIC]
[1]
  Kd: 9 µM
[2]
  solubility / aggregation (in words): sufficiently soluble to measure their binding parameters by ITC

## CC(=O)O[C@H]1C(=O)[C@@]2(C)[C@H]([C@H](OC(=O)c3ccccc3)[C@]3(O)C[C@H](OC(=O)[C@H](O)[C@@H](NC(=O)c4ccccc4)c4ccccc4)C(C)=C1C3(C)C)[C@]1(OC(C)=O)CO[C@@H]1C[C@@H]2O [taxol]
[3]
  effect on S100P-enhanced migration: suppressed
[3]; listed as Taxol
  effect on S100P-enhanced migration: completely prevents the S100P-induced stimulation of migration
[3]; taxol to stabilise MTs or colchicine to dissociate MTs (abstract)
  effect on S100P's stimulation of migration: abolished
[4]; 20 nM taxol, 24 h, COS-7
  reduction of migration by taxol: 70–75%
[4]; Supplementary Figure S4, COS-7, 24 h
  dose dependence of taxol effect on migration: significantly reduced cell migration in a dose-dependent manner
[5]
  effect on S100P-enhanced migration: suppressed
[6]
  effect on S100P-enhanced migration: suppressed
[7]
  effect on cell migration: significantly reduced cell migration in almost all cell types tested
[8]
  reduction of migration by taxol: 70–75%
[9]
  reduction of migration by taxol: 70–75%
[10]
  reduction of migration by taxol: 70–75%

## COC(=O)Nc1nc2ccc(C(=O)c3cccs3)cc2[nH]1 [nocodazole]
[11]
  effect on cell migration: could significantly increase cell migration and shape changes, but reduced chemotaxis; also recorded: dramatically enhance the non-directional (random) movements

B1: Recombinant S100P (natural protein)
chain: MTELETAMGMIIDVFSRYSGSEGSTQTLTKGELKVLMEKELPGFLQSGKDKDAVDKLLKDLDANGDAQVDFSEFIVFVAAITSACHKYFEKAGLK
modifications: 15N-labelled in the NMR experiments
notes: S100P; Used in SPR, gel overlay, NMR and ITC; also called 15N-labelled S100P; source: recombinant, produced as described previously [10]
[12]
  S100P-induced fold increase in migration of COS-7 S10 cells (3.4 or 3.5 fold with DMSO or Tag), with 20 µM T-DIC: 1.4 fold
  S100P-induced fold increase in migration of COS-7 S10 cells (3.4 or 3.5 fold with DMSO or Tag), with 20 µM T-DLV: 1.5 fold
[13]
  Kd: 220 nM
[14]
  Kd: 100 to 200 nM
[15]
  Kd: 9 µM
[16]
  Kd: 62 µM
  stoichiometry N (peptide:protein): 2
[17]
  Kd: 6.1 µM
[18]
  Kd: 310 nM
